Reference: patent publication US6673778B1, “Enzyme inhibitors for metabolic redirection” (The Board of Regents of the University of Nebraska, priority 1996, dated 2004)
In the oligonucleotide strings, read from the 5' end, every base follows the letter of its sugar. An asterisk marks phosphorothioate; unmarked linkages are phosphodiester. Other units and linkages are bracketed, terminal groups are in braces. A string of capitals states the bases alone. d = 2'-deoxy (DNA)

Experiments:
[1] = test system: CYP3A2; test: Erythromycin demethylation (ED) in liver microsomes; type: in vivo, rat
Description: Sleep time was measured after i.p. injection of 50 mg/kg MZ (Hoffman-La Roche, Nutley, N.J.) at 0 (day 1), 24 (day 2) and 48 h (day 4). The volume of the injection was from 2.0 to 2.4 ml/rat. […] The rats were treated with 0.25, 0.50 or 1.00 mg antisense ODN i.p. immediately after the animal had regained its righting reflex determined at 0 and 24 h. Control rats received saline only. Total volume injection was 0.1 ml in saline.
Microsomes were prepared, as described by Franklin and Estabrook (cited above) for determination of enzyme level and activity.
Erythromycin demethylation (ED) was used a measure of CYP3A2 enzymatic activity (Gonzalez, Pharmacol. Rev. 40:243-87, 1989). Activity was recorded as micromoles of formaldehyde per milligram of protein per minute.

[2] = test system: rat CYP3A2; test: Midazolam sleep time in rats; type: in vivo; conditions: MZ 50 mg/kg i.p.
Description: Male Sprague-Dawley rats (Sasco, Omaha) weighing between 210 to 290 grams were used for all studies. The animals were exposed to 12 hour light/dark cycle and fed Purina rat chow and tap water ad libitum.
Sleep time was measured after i.p. injection of 50 mg/kg MZ (Hoffman-La Roche, Nutley, N.J.) at 0 (day 1), 24 (day 2) and […]. The volume of the injection was from 2.0 to 2.4 ml/rat. […] […] Control rats received saline only. Total volume injection was 0.1 ml in saline.

Question: How did the “ED (erythromycin demethylase activity)” value ([1]; 100 μg/day i.p.) turn out when “REV3A2/PMO: PMO reverse control, SEQ ID NO: 43, 5′-UACCUCGACGAAAGUCGAGAGU-3′ (all phosphorodiamidate morpholino (PMO), T or U not given here)” was run?
Answer: The value was 99 μmol HCOH/mg/min.

Question: What about the “MZ ST (midazolam sleep time)” value ([2]; 100 μg/day i.p.) of the same substance?
Answer: The value was 20.3 ± 1.3 min.

Question: Which results are given for “REV3A2/PS: PS DNA reverse control, SEQ ID NO: 43, 5′-TACCTCGACGAAAGTCGAGAGT-3′ (antisense dT*dA*dC*dC*dT*dC*dG*dA*dC*dG*dA*dA*dA*dG*dT*dC*dG*dA*dG*dA*dG*dT)”?
Answer: ED (erythromycin demethylase activity) ([1]; 1000 μg/day i.p.): 91 μmol HCOH/mg/min; MZ ST (midazolam sleep time) ([2]; 1000 μg/day i.p.): 22.4 ± 0.6 min

Question: “AUGM:YC/PMO: PMO myc control, SEQ ID NO: 44, 5′-ACGUUGAGGGGCAUCGUCC-3′ (all phosphorodiamidate morpholino (PMO), T or U not given here)” was tested. Which “ED (erythromycin demethylase activity)” value ([1]; 100 μg/day i.p.) did it give?
Answer: Its value is 110 μmol HCOH/mg/min.

Question: What about the “MZ ST (midazolam sleep time)” value ([2]; 100 μg/day i.p.) of the same substance?
Answer: Its value is 20.6 ± 0.6 min.

Question: “ATGMYC/PS: PS DNA myc control, SEQ ID NO: 44, 5′-ACGTTGAGGGGCAUCGTCC-3′ (DNA, all phosphorothioate, T or U not given here)” was tested. Which “ED (erythromycin demethylase activity)” value ([1]; 1000 μg/day i.p.) did it give?
Answer: Its value is 113 μmol HCOH/mg/min.

Question: And the “MZ ST (midazolam sleep time)” value ([2]; 1000 μg/day i.p.)?
Answer: Its value is 22.8 ± 1.3 min.
